From US12371453B2, “Polypeptide having antibacterial activity, composition for preventing or treating sepsis comprising same, and antibacterial composition” (priority 2019, dated 2025)
In brackets after ≈: the same amount, converted by molar mass. Square brackets hold non-standard residues; d marks the D form. Peptide text beside a SMILES is read from it.

Columns and labels:
[1] = Calcein dye leakage from liposome mimicking gram-negative bacterial cell membrane; format: biochemical; settings: calcein-encapsulated liposome
Description: (§1) To study an action mechanism for FP12-NH2, FP13-NH2, allD FP12-NH2, and allD FP13-NH2 peptides, the disruption ability of the peptides against liposomes mimicking a bacterial cell membrane and a red blood cell membrane was measured.
(§2) EYPG is an abbreviation for egg yolk L-α-phosphatidyl-DL-glycerol, and EYPC is an abbreviation for egg yolk 1,2-diacyl-sn-glycero-3-phosphocholine. CH is an abbreviation for cholesterol. After dissolving the phospholipids composed according to the content of each component in chloroform, the chloroform was removed using a rotary evaporator, and lyophilization was performed overnight. Afterward, the dried lipid film was dissolved in a Tris-buffer solution, and calcein […]. After repeated freezing and thawing, the calcein-encapsulated liposome was manufactured using an extruder. Subsequently, after an excitation wavelength of a spectrofluorimeter (Shimadzu RF 5301 PC spectrofluorimeter, Japan) was set to 490 nm, and an emission wavelength was set to 520 nm, the peptide was administered to the liposome to measure relative dye leakage, provided that a 100% dye leakage was expressed as fluorescence intensity when 0.010% Triton-X100 was added.
(§3) The upper graphs of FIG. 3 show the % dye leakage for an EYPC/EYPG (7:3, w/w) liposome mimicking bacterial cells, encapsulating a fluorescent dye, calcein, by a peptide according to a peptide concentration. […] The lower graphs of FIG. 3 show the % dye leakage for an EYPC/CH (10:1, w/w) liposome, which is […] mimicking a human red blood, encapsulating a fluorescent dye, calcein, by a peptide according to a peptide concentration.

[2] = Calcein dye leakage from liposome mimicking human red blood cell membrane; format: biochemical; settings: calcein-encapsulated liposome
Description: as §1, §2, §3

A. baumannii = format: cell-based

## CC(C)C[C@@H](NC(=O)[C@H](N)CCCCN)C(=O)N[C@H](CCCNC(=N)N)C(=O)N[C@@H](C(=O)N[C@H](CCCCN)C(=O)N[C@H](CC(C)C)C(=O)N[C@H](CCCNC(=N)N)C(=O)N[C@H](CCCNC(=N)N)C(=O)N[C@H](Cc1ccc(O)cc1)C(=O)N[C@H](CC(C)C)C(=O)N[C@H](CCCNC(=N)N)C(N)=O)C(C)C [allD FP13-NH2] (H-[dK][dL][dR][dV][dK][dL][dR][dR][dY][dL][dR]-NH2; N-terminus assumed)
[1]
  dye leakage, PC/PG (7:3, w/w) liposome mimicking a bacteria cell membrane: high dye leakage
[2]
  dye leakage, PC/CH liposome mimicking a red blood cell membrane: almost no dye leakage
A. baumannii
  MIC50: 4 µM (≈ 6 µg/mL)
  MIC90: 8 µM (≈ 12 µg/mL)
